According to patent US9096643B2, “Cell-protective peptides and uses thereof” (priority 2010, dated 2015):
“And” between values parts separate entries of the source, which are not always exact repeats. Equal values may be shown once. No end group written: not given here.

Legend:
[1] = test system: neonatal rat CMs (heart cells); test: Live/dead (CFDA/PI) staining of heart cells on coated surfaces; format: cell-based, rat (Sprague-Dawley); conditions: one and three days of incubation, FIG. 2
Experimental: The day before cells were ready to be seeded, the surfaces in the 12-well plates were sterilized by germicidal UV illumination overnight. The PBS surrounding the surfaces was then aspirated off and 100,000 live cells were pipetted onto each surface in 100 μL of culture media. These surfaces were left in the incubator for 20 to 30 min to allow the cells to begin to adhere, and then supplemented with 1 mL of warm CM media. The cells were cultivated for 8 days, with 100% culture media change every 2-3 days. The initial seeding density of heart cells on peptide-chitosan coated surfaces was 88 cells/mm^2. […] Each type of surface was created in triplicate.
Live dead staining was performed using 5-carboxyfluorescein diacetate acetoxymethly ester (CFDA, Invitrogen), which stains live cells green, and with propidium iodide (PI, Invitrogen), which stains dead cells red, according to the manufacturer's instruction. The samples were incubated in 10 μM of CFDA and 75 μL/mL of PI in PBS for 45 min at 37° C. Three different surfaces were analyzed for each type of sample (N=3) and a total of five images were taken for each surface to get a full representation of the viability of the cells on a surface. In order to quantify the viability, the numbers of live and dead cells were counted separately using the cell counter plug-in on ImageJ.

[2] = test system: Rat neonatal cardiomyocytes; test: ATP assay (CellTiter-Glo) in serum-starved cardiomyocytes; format: cell-based; conditions: 500 μM peptide, 1 d
Experimental: Rat neonatal cardiomyocytes were incubated with PBS (control), 500 μM QHREDGS, scrambled QHREDGS peptide, GRGDSP peptide or 400 nM ang 1 or ang2 in DMEM/0.5% BSA/cytosine-β-D-arabinofuranoside (37° C., 5% CO2, 1 d). ATP levels were quantified using the CellTiter-Glo Luminescent Assay (Promega) as per manufacturer's instructions (N=6/group). Luminescence was measured using a Wallac 1420 microplate reader.

human iPS cells BJ1D = test: iPS colony formation / cloning efficiency after complete dissociation at clonal density; format: cell-based
Experimental: (§1) The human iPS cells (BJ1D and 0901B) were obtained from the Ontario iPSC Facility and used following the hiPS cell research guidelines of the University of Toronto as described by Hotta et al. Nat. Protoc. 4, 1828-1844 (2009)), unless specified otherwise. Cells were cultured on a feeder layer of MEF cells (Mount Sinai Hospital Toronto, inactivated with 10 μg/ml mitomycin C and seeded at 1.8×10^5 per 3.5 cm dish). For single cell cultures, hiPS cell colonies were dissociated in 0.25% Trypsin-EDTA (Invitrogen) for 5 min, followed by trituration with a pipette. To ensure a single-cell suspension, the dissociated cells were passed through a 40 μm cell strainer (BD Falcon) and seeded onto MEF plates at 10 cells/ml, 10 cm plates. Cells were allowed to grow for 7 days and the total number of colonies was counted. In the treated groups, QHREDGS (Biomatik) or DGQESHR (Biomatik) dissolved in PBS (Lonza), were added at the reported concentrations to culture media at the onset of the first treatment passage and replenished with each media change. Media was changed by 100% every day. Peptides and controls were included during dissociation and passaging. Cells were analyzed after 5 passages in continuous treatment with 50 μM QHREDGS, 50 μM DGQESHR, or PBS, unless specified otherwise.
(§2) iPS cells, BJ1D or 0901B were treated with 50 μM of QHREDGS peptide, or 50 μM DGQESHR scrambled peptide in PBS with a PBS treated control for five passages as a preparation for passage by trypsin. Cells were trypsinized and plated at a clonal density of 10 cells/ml for one week and the number of colonies were counted.
(§3) After 5 passages in pre-treatment with 50 μM QHREDGS, or controls and complete dissociation (trypsinized), human iPS cells, BJ1D or 0901B cells, were plated on a mouse embryonic fibroblast (MEF) feeder layer at low density (100 cells/plate, 10 cm plate) in maintenance medium containing 50 μM QHREDGS, PBS, or 50 μM DGQESHR scrambled peptide. After one-week in culture, untreated or DGQESHR (scrambled peptide) treated groups generated few colonies, whereas QHREDGS treated groups for both BJ1D or 0901B cells produced many large colonies (˜15 times more than the controls) (see FIG. 13A/B, respectively). The colonies were positive for Oct4, a marker for the undifferentiated state. The cloning efficiency, based on ratio of Oct4+ colonies formed per initially seeded human iPS cells, was 27+/−7.1% and 2.5+/−0.6% for BJ1D and 48+/−9.4% and 22.3+/−1.9 for 0901B in the presence and absence of QHREDGS, respectively. […] Thus, treatment with QHREDGS supports single-cell culture of human iPS cells through the promotion of colony formation.

human iPS cells 0901B = test: as above; format: cell-based
Experimental: as §1, §2, §3

[3] = test system: Rat neonatal cardiomyocytes; test: Hydrogen peroxide treatment, Trypan blue viability (monolayer); format: cell-based; conditions: 500 μM peptide 1.5 hr, 100 μM H2O2 10 min, FIG. 5A
Experimental: Rat neonatal cardiomyocytes were incubated for 1.5 hr with 500 μM QHREDGS, scrambled (scram) QHREDGS peptide (DGQESHR), or PBS control (PBS); 200 nM ang 1 or its matched buffer control [0.1% bovine serum albumin (BSA) in PBS] in the culture medium. The culture medium consisted of Dulbecco's Modified Eagle's Medium (DMEM) with 0.5% BSA and cytosine-β-D-arabinofuranoside (anti-proliferative). Reactive oxygen species were increased by addition of 100 μM H2O2 for 10 min (37° C., 5% CO2) (N=6/group). Cell viability was measured using a Trypan blue stain. Trypan blue dye is impermeable to viable cells, but enters dead/damaged cells with impaired membrane integrity, staining cells blue.

human iPS cells = test: EB differentiation of treated iPS cells; format: cell-based; conditions: after 5 passages of treatment, EB protocol
Experimental: Following 5 passages in continuous treatment, iPS cells were collected and differentiated into embryoid bodies (EB) containing cells of all three germ layers as described Itskovitz-Eldor, J. et al. Mol. Med. 6, 88-95 (2000). For further differentiation and analysis, EBs were plated onto 0.2% gelatin coated plates for another 10 days for attachment and fixed in 4% para-formaldehyde (Sigma) for immunohistochemistry.

[4] = 50 μM, 100 cells/plate on MEF, one week
[5] = in the presence of 50 μM QHREDGS

Substance	cell viability (live/dead) [1]	cardiac myocyte ATP levels [2]	colonies relative to controls (human iPS cells BJ1D; [4])	number of colonies (human iPS cells BJ1D; 50 μM, trypsinized, clonal density, one week, FIG. 13A)	cloning efficiency (Oct4+ colonies per initially seeded cells) (human iPS cells BJ1D; [5])	colonies relative to controls (human iPS cells 0901B; [4])	number of colonies (human iPS cells 0901B; 50 μM, trypsinized, clonal density, one week, FIG. 13B)	cloning efficiency (Oct4+ colonies per initially seeded cells) (human iPS cells 0901B; [5])	cardiomyocyte viability after exposure to H2O2 [3]	differentiation into neural, mesodermal and endodermal cells (human iPS cells)
Az-chitosan-QHREDGS: QHREDGS peptide covalently conjugated to Az-chitosan by EDC chemistry (also: covalently conjugated to Az-chitosan by EDC chemistry, site not given here)	significantly greater cell viability	–	–	–	–	–	–	–	–	–
QHREDGS (angiopoietin 1 peptide)	–	substantially increased	~15 times more than the controls	increased significantly	27+/−7.1% and 27%	~15 times more than the controls	increased significantly	48+/−9.4% and 48%	maintain cardiomyocyte viability	retained the competence to differentiate
